Calls of active or inactive are those of the source. No cut-off for these calls is given here.
How the values were obtained:
[1] = Cytotoxicity against human K562 cells assessed as decrease in cell survival rate incubated for 72 hrs by MTS assay; assay type: toxicity, cell-based
[2] = Cytotoxicity against human K562/A02 cells overexpressing ABCB1 assessed as decrease in cell survival rate incubated for 72 hrs by MTS assay; assay type: toxicity, cell-based
[3] = system: K562; assay: Reversal of ABCB1 mediated adriamycin resistance in human K562 assessed as decrease in survival rate at 1.25 to 5 uM preincubated for 1 hrs followed by adriamycin addition and measured after 72 hrs by MTS assay; assay type: functional, cell-based; settings: dose 1.25-5 µM, time 73.0 hrs
[4] = system: K562/A02; assay: Reversal of ABCB1 mediated adriamycin resistance in human K562/A02 overexpressing ABCB1 assessed as decrease in survival rate at 1.25 to 5 uM preincubated for 1 hrs followed by adriamycin addition and measured after 72 hrs by MTS assay; assay type: functional, cell-based; settings: dose 1.25-5 µM, time 73.0 hrs
[5] = system: K562/A02; assay: Reversal of ABCB1 mediated adriamycin resistance in human K562/A02 overexpressing ABCB1 assessed as decrease in survival rate at 5 uM preincubated for 1 hrs followed by adriamycin addition and measured after 72 hrs by MTS assay; assay type: functional
[6] = Cytotoxicity against human HEK293 cells assessed as reduction in cell viability incubated for 72 hrs by SRB assay; assay type: toxicity, cell-based
[7] = Cytotoxicity against human HEK293 cells expressing ABCG2 assessed as reduction in cell viability incubated for 72 hrs by SRB assay; assay type: toxicity, cell-based
[8] = system: HEK293; assay: Reversal of ABCG2 mediated mitoxantrone resistance in human HEK293 assessed as decrease in survival rate at 1.25 to 5 uM preincubated for 1 hrs followed by mitoxantrone addition and measured after 72 hrs by SRB assay; assay type: functional, cell-based; settings: dose 1.25-5 µM, time 73.0 hrs
[9] = system: HEK293; assay: Reversal of ABCG2 mediated mitoxantrone resistance in human HEK293 overexpressing ABCG2 assessed as decrease in survival rate at 1.25 to 5 uM preincubated for 1 hrs followed by mitoxantrone addition and measured after 72 hrs by SRB assay; assay type: functional, cell-based; settings: dose 1.25-5 µM, time 73.0 hrs
[10] = system: K562/A02; assay: Reversal of ABCB1 mediated multidrug resistance in human K562/A02 cells overexpressing ABCB1 assessed as decrease in survival rate at 1.25 to 5 uM preincubated for 1 hrs followed by paclitaxel addition and measured after 72 hrs by MTS assay; assay type: functional, cell-based; settings: dose 1.25-5 µM, time 73.0 hrs
[11] = system: K562/A02; assay: Reversal of ABCB1 mediated multidrug resistance in human K562/A02 cells overexpressing ABCB1 assessed as decrease in survival rate at 1.25 to 5 uM preincubated for 1 hrs followed by vincristine addition and measured after 72 hrs by MTS assay; assay type: functional, cell-based; settings: dose 1.25-5 µM, time 73.0 hrs
[12] = system: K562/A02; assay: Reversal of ABCB1 mediated multidrug resistance in human K562/A02 cells overexpressing ABCB1 assessed as decrease in survival rate at 1.25 uM preincubated for 1 hrs followed by vincristine addition and measured after 72 hrs by MTS assay; assay type: functional; settings: time 73 hrs
[13] = system: HEK293; assay: Reversal of ABCG2 mediated multidrug resistance in human HEK293 overexpressing ABCG2 assessed as decrease in survival rate at 1.25 to 5 uM preincubated for 1 hrs followed by adriamycin addition and measured after 72 hrs by SRB assay; assay type: functional, cell-based; settings: dose 1.25-5 µM, time 73.0 hrs
[14] = system: HEK293; assay: Reversal of ABCG2 mediated multidrug resistance in human HEK293 overexpressing ABCG2 assessed as decrease in survival rate at 1.25 to 5 uM preincubated for 1 hrs followed by topotecan addition and measured after 72 hrs by SRB assay; assay type: functional, cell-based; settings: dose 1.25-5 µM, time 73.0 hrs
[15] = system: K562/A02; assay: Reversal of ABCB1 mediated multidrug resistance in human K562/A02 cells overexpressing ABCB1 assessed as change in ABCB1 protein expression level at 2.5 uM incubated for 72 hrs by Western blot analysis; assay type: functional, cell-based
[16] = system: HEK293; assay: Reversal of ABCG2 mediated multidrug resistance in human HEK293 cells overexpressing ABCG2 assessed as change in ABCG2 protein expression level at 2.5 uM incubated for 48 hrs by Western blot analysis; assay type: functional, cell-based
[17] = system: K562/A02; assay: Reversal of ABCB1 mediated multidrug resistance in human K562/A02 cells overexpressing ABCB1 assessed as change in abcb1 mRNA expression level at 2.5 uM incubated for 72 hrs by real time RT-PCR analysis; assay type: functional, cell-based
[18] = system: HEK293; assay: Reversal of ABCG2 mediated multidrug resistance in human HEK293 cells overexpressing ABCG2 assessed as change in abcg2 mRNA expression level at 2.5 uM incubated for 48 hrs by real time RT-PCR analysis; assay type: functional, cell-based
[19] = target: ATP-dependent translocase ABCB1 (Homo sapiens, UniProt P08183); assay: Inhibition of ABCB1 (unknown origin) ATPase activity assessed as decrease in luminescence by firefly luciferase reporter assay
Sequence of ATP-dependent translocase ABCB1 (P08183 whole entry): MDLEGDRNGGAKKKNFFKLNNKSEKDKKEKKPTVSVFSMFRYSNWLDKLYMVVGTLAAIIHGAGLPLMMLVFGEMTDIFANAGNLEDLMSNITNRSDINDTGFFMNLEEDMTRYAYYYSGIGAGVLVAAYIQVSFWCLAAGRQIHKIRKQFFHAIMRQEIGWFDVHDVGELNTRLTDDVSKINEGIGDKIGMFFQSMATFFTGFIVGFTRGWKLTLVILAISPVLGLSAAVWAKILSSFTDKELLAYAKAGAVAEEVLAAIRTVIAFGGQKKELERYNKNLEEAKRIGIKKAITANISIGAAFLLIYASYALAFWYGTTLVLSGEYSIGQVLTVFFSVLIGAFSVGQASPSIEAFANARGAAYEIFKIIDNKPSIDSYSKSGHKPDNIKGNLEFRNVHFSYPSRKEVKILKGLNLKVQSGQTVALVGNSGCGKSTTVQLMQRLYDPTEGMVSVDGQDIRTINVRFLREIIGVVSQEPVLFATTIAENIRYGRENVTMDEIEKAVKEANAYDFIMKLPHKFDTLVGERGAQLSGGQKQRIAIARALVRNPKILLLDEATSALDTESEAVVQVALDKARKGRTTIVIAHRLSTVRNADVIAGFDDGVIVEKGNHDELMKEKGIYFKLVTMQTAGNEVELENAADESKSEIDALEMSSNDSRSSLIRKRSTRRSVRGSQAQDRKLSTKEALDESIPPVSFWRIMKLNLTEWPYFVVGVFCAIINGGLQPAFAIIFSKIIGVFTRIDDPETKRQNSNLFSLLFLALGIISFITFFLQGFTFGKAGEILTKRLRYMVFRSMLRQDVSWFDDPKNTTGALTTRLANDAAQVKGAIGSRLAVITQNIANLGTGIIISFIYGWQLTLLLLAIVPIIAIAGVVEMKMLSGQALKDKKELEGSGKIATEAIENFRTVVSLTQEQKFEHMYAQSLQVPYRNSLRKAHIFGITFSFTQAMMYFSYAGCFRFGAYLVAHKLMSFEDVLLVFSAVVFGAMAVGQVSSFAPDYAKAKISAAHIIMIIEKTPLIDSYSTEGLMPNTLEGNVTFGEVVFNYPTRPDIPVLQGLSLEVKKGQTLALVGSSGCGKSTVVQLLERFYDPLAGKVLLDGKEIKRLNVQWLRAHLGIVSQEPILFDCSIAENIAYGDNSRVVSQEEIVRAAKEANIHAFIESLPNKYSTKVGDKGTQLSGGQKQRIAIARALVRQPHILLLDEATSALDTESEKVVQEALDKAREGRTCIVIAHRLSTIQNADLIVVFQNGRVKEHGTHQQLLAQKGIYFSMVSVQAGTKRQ

[20] = target: T1, Broad substrate specificity ATP-binding cassette transporter ABCG2 (Homo sapiens, UniProt Q9UNQ0); assay: Inhibition of ABCG2 (unknown origin) ATPase activity assessed as decrease in luminescence by firefly luciferase reporter assay
T1 sequence (Q9UNQ0 whole entry): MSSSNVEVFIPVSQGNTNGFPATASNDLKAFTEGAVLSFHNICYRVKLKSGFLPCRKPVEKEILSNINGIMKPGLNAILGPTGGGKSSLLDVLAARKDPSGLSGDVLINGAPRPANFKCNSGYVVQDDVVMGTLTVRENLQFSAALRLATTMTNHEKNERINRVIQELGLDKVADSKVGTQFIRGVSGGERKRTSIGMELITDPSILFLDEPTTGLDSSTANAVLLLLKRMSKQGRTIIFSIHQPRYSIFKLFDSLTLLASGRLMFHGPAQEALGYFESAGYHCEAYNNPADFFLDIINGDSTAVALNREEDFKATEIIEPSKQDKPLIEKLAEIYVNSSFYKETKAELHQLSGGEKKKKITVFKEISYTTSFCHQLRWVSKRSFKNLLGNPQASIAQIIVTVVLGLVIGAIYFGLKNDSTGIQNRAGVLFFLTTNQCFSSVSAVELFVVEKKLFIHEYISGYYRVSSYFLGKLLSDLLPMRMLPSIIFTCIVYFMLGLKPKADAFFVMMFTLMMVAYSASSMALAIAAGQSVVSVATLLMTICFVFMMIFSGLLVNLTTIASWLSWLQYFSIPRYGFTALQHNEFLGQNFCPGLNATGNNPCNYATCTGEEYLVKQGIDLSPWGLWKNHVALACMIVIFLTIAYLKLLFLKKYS

[21] = Stability in rat plasma assessed as parent compound remaining at 80 ug/ml and measured after 300 mins by LC-MS/MS analysis; assay type: ADME, cell-free; settings: 5 h, at 80 µg/mL
[22] = Metabolic stability in rat liver microsomes assessed as half life at 80 ug/ml preincubated for 5 mins followed by NADPH addition and measured upto 120 mins by LC-MS/MS analysis; assay type: ADME, Microsome; settings: dose 80 µg/ml, time < 125 min
[23] = Metabolic stability in rat liver microsomes assessed as intrinsic clearance at 80 ug/ml preincubated for 5 mins followed by NADPH addition and measured upto 120 mins by LC-MS/MS analysis; assay type: ADME, Microsome; settings: dose 80 µg/ml, time < 125 min, read-out: CLH
[24] = AUCt in Sprague-Dawley rat at 5 mg/kg, iv by LC-MS/MS analysis; assay type: ADME, organism-based; design: dose 5 mg/kg, route iv; settings: in vivo
[25] = AUC (0 to infinity) in Sprague-Dawley rat at 5 mg/kg, iv by LC-MS/MS analysis; assay type: ADME, organism-based; design: dose 5 mg/kg, route iv; settings: in vivo
[26] = Volume of distribution at steady state in Sprague-Dawley rat at 5 mg/kg, iv by LC-MS/MS analysis; assay type: ADME, organism-based; settings: in vivo, read-out: Vdss
[27] = Clearance in Sprague-Dawley rat at 5 mg/kg, iv by LC-MS/MS analysis; assay type: ADME, organism-based; settings: in vivo
[28] = Half life in Sprague-Dawley rat at 5 mg/kg, iv by LC-MS/MS analysis; assay type: ADME, organism-based; settings: in vivo
[29] = Toxicity in iv dosed BALB/c mouse xenografted with human K562/A02 cells overexpressing ABCB1 assessed as lethality; assay type: organism-based; settings: in vivo
[30] = system: K562; assay: Antitumor activity against human K562 cells xenografted in BALB/c mouse assessed as tumor growth inhibition at 40 mg/kg, iv QD for 14 days in presence of adriamycin; assay type: functional, organism-based; settings: time 14.0 day
[31] = system: K562/A02; assay: Antitumor activity against human K562/A02 cells overexpressing ABCB1 xenografted in BALB/c mouse assessed as tumor growth inhibition at 40 mg/kg, iv QD for 14 days in presence of adriamycin; assay type: functional, organism-based; settings: time 14.0 day
[32] = Toxicity in BALB/c mouse xenografted with human K562 cells assessed as body weight loss at 10 to 40 mg/kg, iv QD for 14 days in presence of adriamycin; assay type: organism-based; settings: in vivo, 336 h, dose 10-40 mg/kg, time 14 day
[33] = Toxicity in BALB/c mouse xenografted with human K562 cells assessed as body weight loss at 20 mg/kg, iv QD for 14 days; assay type: organism-based; settings: in vivo, 336 h, time 14 day
[34] = Toxicity in BALB/c mouse xenografted with human K562/A02 cells overexpressing ABCB1 assessed as body weight loss at 10 to 40 mg/kg, iv QD for 14 days in presence of adriamycin; assay type: organism-based; settings: in vivo, 336 h, dose 10-40 mg/kg, time 14 day
[35] = Toxicity in BALB/c mouse xenografted with human K562/A02 cells overexpressing ABCB1 assessed as body weight loss at 20 mg/kg, iv QD for 14 days; assay type: organism-based; settings: in vivo, 336 h, time 14 day

Q: What does the source list for `O=C(CN1CCN(c2ccc(OC(F)(F)F)cc2)CC1)Nc1ccc(-c2nc3ccccn3c2CN2CCN(c3ccccc3)CC2)cc1`?
A: IC50 at 72 h [1]: > 100 µM; IC50 at 72 h [2]: > 100 µM; Activity [3]: inactive; Activity [4]: Active; Activity [5]: <30%; IC50 at 72 h [6]: 53.4 µM; IC50 at 72 h [7]: 67.7 µM; Activity [8]: inactive; Activity [9]: Active; Activity [10]: Active; Activity [11]: Active; Activity [12]: 56%; Activity [13]: Active; Activity [14]: Active; Activity [15]: inactive; Activity [16]: inactive; Activity [17]: inactive; Activity [18]: inactive; inhibition (INH) [19]: Active; inhibition (INH) [20]: Active; Stability [21]: Stable; half-life at 80 ug/ml [22]: 1.02 h; microsomal CLint at 80 ug/ml [23]: 2.27 µL/min/mg; AUC(0-t) [24]: 651 ng·h/mL; AUC(0-inf) [25]: 676 ng·h/mL; Vd [26]: 9.41 L/kg; clearance [27]: 130 mL/min/kg; half-life [28]: 2.25 h; LD50 [29]: > 200 mg/kg/day; Activity [30]: inactive; Activity [31]: Active; Activity [32]: Non-Toxic; Activity [33]: Non-Toxic; Activity [34]: Non-Toxic; Activity [35]: Non-Toxic
